This passage reports inhibition results from ChEMBL document CHEMBL3132769, “Fragment growing to retain or alter the selectivity of anchored kinase hinge-binding fragments” (Medchemcomm, 2014).

A word on the inhibition: it is the drop in the measured response relative to a control, in per cent.

Each structure is given as a SMILES string.

Assay [1] has as its target MAP kinase-activated protein kinase 3 (Homo sapiens) (UniProt Q16644). The following applies: 0.1 uM.
Description: Inhibition of human full length MAPKAPK3 expressed in Escherichia coli cell assessed as substrate phosphorylation using fluorescence-labelled peptides as substrate at 0.1 uM after 90 mins by microfluidic peptide phosphorylation assay
The target of assay [2] is Mitogen-activated protein kinase 3 (Homo sapiens) (UniProt P27361). The assay can be described thus: Inhibition of human full length ERK1 expressed in Escherichia coli cell assessed as substrate phosphorylation using fluorescence-labelled peptides as substrate at 420 uM after 90 mins by microfluidic peptide phosphorylation assay.
In assay [3] the target is T1, MAP kinase-activated protein kinase 5 (Homo sapiens) (UniProt Q8IW41).
T1 sequence (whole entry): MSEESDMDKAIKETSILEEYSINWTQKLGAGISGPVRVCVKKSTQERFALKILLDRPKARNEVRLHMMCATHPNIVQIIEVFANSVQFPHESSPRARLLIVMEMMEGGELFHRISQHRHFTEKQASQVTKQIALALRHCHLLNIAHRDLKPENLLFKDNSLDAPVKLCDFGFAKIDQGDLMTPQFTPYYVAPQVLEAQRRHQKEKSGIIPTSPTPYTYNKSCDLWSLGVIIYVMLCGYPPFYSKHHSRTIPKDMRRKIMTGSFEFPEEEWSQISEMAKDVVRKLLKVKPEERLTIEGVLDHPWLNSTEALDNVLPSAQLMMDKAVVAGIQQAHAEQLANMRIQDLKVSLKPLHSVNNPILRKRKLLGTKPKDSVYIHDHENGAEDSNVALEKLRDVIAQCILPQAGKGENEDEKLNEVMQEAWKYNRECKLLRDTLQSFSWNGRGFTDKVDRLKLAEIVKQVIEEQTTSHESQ
The assay can be described thus: Inhibition of human full length PRAK expressed in baculovirus assessed as substrate phosphorylation using fluorescence-labelled peptides as substrate at 420 uM after 90 mins by microfluidic peptide phosphorylation assay.

In assay [4] the target is T2, cGMP-dependent protein kinase 1 (Homo sapiens) (UniProt Q13976).
T2 sequence (whole entry): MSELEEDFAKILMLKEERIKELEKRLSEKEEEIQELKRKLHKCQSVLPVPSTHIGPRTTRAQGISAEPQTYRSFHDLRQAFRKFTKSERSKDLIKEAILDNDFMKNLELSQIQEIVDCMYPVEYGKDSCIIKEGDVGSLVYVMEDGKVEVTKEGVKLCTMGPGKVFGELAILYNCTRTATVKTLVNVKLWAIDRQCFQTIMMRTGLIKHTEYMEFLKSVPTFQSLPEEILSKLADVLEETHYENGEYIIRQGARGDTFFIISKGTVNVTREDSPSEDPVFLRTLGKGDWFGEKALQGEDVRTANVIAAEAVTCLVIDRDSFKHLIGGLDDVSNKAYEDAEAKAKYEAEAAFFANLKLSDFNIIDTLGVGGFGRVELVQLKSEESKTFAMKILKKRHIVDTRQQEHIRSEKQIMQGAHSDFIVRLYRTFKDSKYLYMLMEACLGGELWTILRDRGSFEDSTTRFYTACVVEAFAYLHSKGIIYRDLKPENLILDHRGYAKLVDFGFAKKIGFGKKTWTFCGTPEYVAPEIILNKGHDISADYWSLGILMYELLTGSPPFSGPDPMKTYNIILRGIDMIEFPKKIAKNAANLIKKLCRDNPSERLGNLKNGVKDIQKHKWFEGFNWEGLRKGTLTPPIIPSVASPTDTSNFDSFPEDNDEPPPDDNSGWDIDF
The assay can be described thus: Inhibition of human full length PKG-1beta expressed in baculovirus assessed as substrate phosphorylation using fluorescence-labelled peptides as substrate at 95 uM after 90 mins by microfluidic peptide phosphorylation assay.

Assay [5] has as its target Protein kinase C alpha type (Homo sapiens) (UniProt P17252). The assay can be described thus: Inhibition of human truncated PKC alpha expressed in baculovirus assessed as substrate phosphorylation using fluorescence-labelled peptides as substrate at 95 uM after 90 mins by microfluidic peptide phosphorylation assay.
In assay [6] the target is Mitogen-activated protein kinase kinase kinase kinase 4 (Homo sapiens) (UniProt O95819). The assay can be described thus: Inhibition of human HGK catalytic domain expressed in baculovirus assessed as substrate phosphorylation using fluorescence-labelled peptides as substrate at 95 uM after 90 mins by microfluidic peptide phosphorylation assay.
The target of assay [7] is Tyrosine-protein kinase Lyn (Homo sapiens) (UniProt P07948). Put plainly: Inhibition of human full length LYN expressed in baculovirus assessed as substrate phosphorylation using fluorescence-labelled peptides as substrate at 9 uM after 90 mins by microfluidic peptide phosphorylation assay.
Assay [8] concerns the target Calcium/calmodulin-dependent protein kinase type II subunit delta (Homo sapiens) (UniProt Q13557). The assay can be described thus: Inhibition of human full length CAMK2D expressed in baculovirus assessed as substrate phosphorylation using fluorescence-labelled peptides as substrate at 8 uM after 90 mins by microfluidic peptide phosphorylation assay.
Assay [9] addresses T3, Protein kinase C epsilon type (Homo sapiens) (UniProt Q02156).
T3 sequence (whole entry): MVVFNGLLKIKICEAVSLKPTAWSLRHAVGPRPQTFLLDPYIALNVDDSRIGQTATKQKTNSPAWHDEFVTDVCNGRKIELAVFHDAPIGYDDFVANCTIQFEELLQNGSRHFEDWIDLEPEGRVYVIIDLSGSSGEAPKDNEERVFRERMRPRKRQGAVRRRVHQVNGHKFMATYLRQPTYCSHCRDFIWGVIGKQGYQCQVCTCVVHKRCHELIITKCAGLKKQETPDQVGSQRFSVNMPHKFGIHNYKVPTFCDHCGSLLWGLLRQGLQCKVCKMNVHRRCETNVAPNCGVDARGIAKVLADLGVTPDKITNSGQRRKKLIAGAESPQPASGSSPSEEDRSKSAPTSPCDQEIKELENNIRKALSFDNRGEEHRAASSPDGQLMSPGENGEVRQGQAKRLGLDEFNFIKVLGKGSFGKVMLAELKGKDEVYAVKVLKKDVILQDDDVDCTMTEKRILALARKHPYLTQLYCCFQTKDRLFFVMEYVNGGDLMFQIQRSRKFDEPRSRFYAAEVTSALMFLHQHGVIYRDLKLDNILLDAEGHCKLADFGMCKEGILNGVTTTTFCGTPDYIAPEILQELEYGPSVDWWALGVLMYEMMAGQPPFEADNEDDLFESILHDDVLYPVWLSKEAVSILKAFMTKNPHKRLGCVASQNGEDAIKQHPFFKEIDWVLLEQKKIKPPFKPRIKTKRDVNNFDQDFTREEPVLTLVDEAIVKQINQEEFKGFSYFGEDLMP
The assay can be described thus: Inhibition of human truncated PKC epsilon expressed in baculovirus assessed as substrate phosphorylation using fluorescence-labelled peptides as substrate at […] after 90 mins by microfluidic peptide phosphorylation assay.

Assay [10] has as its target T2, cGMP-dependent protein kinase 1 (Homo sapiens). Put plainly: Inhibition of human full length PKG-1beta expressed in baculovirus assessed as substrate phosphorylation using fluorescence-labelled peptides as substrate at 0.06 uM after 90 mins by microfluidic peptide phosphorylation assay.
Assay [11] deals with Mitogen-activated protein kinase kinase kinase kinase 4 (Homo sapiens) (UniProt O95819). Put plainly: Inhibition of human HGK catalytic domain expressed in baculovirus assessed as substrate phosphorylation using fluorescence-labelled peptides as substrate at 0.06 uM after 90 mins by microfluidic peptide phosphorylation assay.
The target of assay [12] is MAP kinase-activated protein kinase 2 (Homo sapiens) (UniProt P49137). The assay can be described thus: Inhibition of human full length MAPKAPK2 expressed in baculovirus assessed as substrate phosphorylation using fluorescence-labelled peptides as substrate at 2 uM after 90 mins by microfluidic peptide phosphorylation assay.
Sequence of MAP kinase-activated protein kinase 2 (Homo sapiens) (P49137 whole entry, looked up): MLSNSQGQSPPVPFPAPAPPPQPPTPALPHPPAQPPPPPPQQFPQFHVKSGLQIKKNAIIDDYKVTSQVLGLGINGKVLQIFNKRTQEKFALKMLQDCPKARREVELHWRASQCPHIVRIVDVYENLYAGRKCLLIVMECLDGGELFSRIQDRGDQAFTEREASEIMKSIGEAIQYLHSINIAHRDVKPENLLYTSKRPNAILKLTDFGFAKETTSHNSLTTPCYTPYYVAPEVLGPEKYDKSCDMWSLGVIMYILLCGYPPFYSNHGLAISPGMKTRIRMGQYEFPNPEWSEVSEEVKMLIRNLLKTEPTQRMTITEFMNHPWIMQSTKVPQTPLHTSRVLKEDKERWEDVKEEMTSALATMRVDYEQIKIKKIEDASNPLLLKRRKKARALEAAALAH

Sequence of Mitogen-activated protein kinase kinase kinase kinase 4 (Homo sapiens) (O95819 2-1239 limits assumed): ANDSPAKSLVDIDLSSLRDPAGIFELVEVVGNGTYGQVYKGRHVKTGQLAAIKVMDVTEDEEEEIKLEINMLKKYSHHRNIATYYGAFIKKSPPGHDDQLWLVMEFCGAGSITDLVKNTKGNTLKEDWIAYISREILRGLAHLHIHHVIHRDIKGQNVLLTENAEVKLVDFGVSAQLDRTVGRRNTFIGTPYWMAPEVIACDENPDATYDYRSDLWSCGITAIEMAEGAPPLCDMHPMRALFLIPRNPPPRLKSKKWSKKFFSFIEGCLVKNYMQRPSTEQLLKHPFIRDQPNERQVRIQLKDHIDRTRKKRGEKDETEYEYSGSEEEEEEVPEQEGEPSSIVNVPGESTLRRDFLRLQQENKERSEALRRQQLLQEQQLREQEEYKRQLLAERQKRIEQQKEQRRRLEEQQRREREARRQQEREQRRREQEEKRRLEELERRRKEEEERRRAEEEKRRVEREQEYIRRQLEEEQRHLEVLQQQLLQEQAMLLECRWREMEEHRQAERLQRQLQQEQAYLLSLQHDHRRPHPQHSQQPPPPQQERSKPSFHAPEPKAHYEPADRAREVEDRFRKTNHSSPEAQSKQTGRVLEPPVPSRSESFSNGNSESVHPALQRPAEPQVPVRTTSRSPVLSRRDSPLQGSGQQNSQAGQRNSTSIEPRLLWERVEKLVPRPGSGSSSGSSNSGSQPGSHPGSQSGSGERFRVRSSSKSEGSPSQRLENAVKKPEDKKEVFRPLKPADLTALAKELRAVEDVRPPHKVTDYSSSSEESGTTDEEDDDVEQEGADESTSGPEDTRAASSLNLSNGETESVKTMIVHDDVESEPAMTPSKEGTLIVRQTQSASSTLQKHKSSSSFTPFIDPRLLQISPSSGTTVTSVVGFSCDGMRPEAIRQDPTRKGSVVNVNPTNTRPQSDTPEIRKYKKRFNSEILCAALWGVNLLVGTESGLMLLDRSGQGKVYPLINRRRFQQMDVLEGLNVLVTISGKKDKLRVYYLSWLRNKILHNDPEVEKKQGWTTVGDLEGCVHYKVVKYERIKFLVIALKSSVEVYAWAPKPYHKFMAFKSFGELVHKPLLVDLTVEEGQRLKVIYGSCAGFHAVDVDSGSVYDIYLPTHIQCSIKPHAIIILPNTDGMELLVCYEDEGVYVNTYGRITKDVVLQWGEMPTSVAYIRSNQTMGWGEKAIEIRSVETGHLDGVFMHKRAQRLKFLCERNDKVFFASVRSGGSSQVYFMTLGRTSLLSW
Sequence of Tyrosine-protein kinase Lyn (Homo sapiens) (P07948 2-512 limits assumed): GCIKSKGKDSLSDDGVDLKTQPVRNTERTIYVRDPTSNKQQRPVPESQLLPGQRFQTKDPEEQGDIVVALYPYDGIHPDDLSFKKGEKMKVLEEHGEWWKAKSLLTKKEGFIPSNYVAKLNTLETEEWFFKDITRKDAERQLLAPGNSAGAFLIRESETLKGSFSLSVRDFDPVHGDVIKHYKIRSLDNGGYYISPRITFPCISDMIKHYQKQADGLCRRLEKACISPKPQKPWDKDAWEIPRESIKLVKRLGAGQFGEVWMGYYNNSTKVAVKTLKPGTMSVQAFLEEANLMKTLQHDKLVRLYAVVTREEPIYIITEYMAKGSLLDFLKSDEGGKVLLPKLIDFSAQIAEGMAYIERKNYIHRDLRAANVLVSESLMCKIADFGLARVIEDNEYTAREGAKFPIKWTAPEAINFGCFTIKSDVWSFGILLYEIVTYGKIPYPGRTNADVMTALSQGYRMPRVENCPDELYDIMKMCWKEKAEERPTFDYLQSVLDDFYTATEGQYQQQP
Sequence of Calcium/calmodulin-dependent protein kinase type II subunit delta (Homo sapiens) (Q13557 whole entry): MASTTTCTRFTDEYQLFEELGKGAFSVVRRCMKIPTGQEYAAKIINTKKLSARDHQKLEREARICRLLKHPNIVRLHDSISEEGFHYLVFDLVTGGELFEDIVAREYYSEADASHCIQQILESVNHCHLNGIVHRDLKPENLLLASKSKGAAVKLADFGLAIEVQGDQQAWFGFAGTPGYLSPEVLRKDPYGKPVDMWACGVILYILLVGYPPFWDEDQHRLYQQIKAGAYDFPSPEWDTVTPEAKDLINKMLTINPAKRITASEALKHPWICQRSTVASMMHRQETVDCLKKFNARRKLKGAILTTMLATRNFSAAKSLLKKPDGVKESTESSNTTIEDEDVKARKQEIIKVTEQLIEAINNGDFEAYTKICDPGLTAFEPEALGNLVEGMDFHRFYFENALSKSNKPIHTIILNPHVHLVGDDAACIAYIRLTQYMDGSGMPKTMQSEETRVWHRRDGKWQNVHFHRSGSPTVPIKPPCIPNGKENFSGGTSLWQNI
Sequence of MAP kinase-activated protein kinase 3 (Homo sapiens) (Q16644 whole entry, looked up): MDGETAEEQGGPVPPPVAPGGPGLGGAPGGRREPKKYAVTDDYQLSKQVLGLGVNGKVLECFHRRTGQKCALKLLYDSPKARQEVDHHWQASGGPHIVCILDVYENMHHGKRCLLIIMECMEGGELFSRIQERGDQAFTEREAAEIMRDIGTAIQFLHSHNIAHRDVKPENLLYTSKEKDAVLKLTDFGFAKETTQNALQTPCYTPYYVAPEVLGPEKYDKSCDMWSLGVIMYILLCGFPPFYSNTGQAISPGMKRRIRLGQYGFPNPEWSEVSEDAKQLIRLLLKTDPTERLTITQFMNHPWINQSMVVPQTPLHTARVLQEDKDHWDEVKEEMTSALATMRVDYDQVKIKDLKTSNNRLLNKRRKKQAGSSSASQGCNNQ
Sequence of Mitogen-activated protein kinase 3 (Homo sapiens) (P27361 whole entry): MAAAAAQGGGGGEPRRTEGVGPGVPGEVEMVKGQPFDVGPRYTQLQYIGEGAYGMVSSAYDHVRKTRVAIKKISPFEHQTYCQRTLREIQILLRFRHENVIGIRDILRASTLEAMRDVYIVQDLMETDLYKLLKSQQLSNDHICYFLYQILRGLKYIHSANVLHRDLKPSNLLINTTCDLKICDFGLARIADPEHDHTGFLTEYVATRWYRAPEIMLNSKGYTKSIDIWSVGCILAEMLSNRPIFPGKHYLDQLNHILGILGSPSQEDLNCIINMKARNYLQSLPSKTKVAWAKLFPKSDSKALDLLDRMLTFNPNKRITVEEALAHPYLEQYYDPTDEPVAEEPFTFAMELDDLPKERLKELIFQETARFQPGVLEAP

In turn, `C[C@H](CN(C)C)Oc1nc(Nc2cc3cccc(Cl)c3cn2)cnc1C#N` had an inhibition in assay [1] of 0%.
As for `c1nc(N2CCOCC2)c2nc[nH]c2n1`, the results for the inhibition in assay [2] and in assay [3] were 78.5% and 40%, respectively.
For `NCCc1ccc(-c2ncnc3[nH]cnc23)cc1`, the inhibition in assay [4] turned out to be 93%; in [5], 69.5%; in assay [6], 39.5%.
Regarding `NCC1CN(c2ncnc3[nH]c4cnccc4c23)CCO1` (configuration not stated), the inhibition in assay [7] was determined as 42%.
Take `NCC1CCN(c2ncnc3[nH]ccc23)CC1`: the inhibition in assay [8] was determined as 25%.
As for `COC(=O)c1cnc(Nc2cnc(C#N)cn2)cc1NCC1CCNCC1`, the inhibition in assay [9] was 1%.
For the molecule `NC1(Cc2ccc(Cl)cc2)CCN(c2ncnc3[nH]ccc23)CC1`, the results for the inhibition in assay [10] and in assay [11] were 0% and 1%, respectively.
Regarding `NC1CCN(c2ncnc3[nH]ccc23)CC1`, in assay [12], the inhibition was determined as 33%.
